In the supplement of paper PMC10307832:

Legend:
Test in all cases: relative viability (nuclei count vs DMSO), 5 days (fraction); higher = more cells survive
[1] = compound: C[As](C)SC[C@H](NC(=O)CC[C@H](N)C(=O)O)C(=O)NCC(=O)O [Darinaparsin] + C[C@]1(O)C[C@@H](c2nc(-c3ccc4ccc(-c5ccccc5)nc4c3)c3c(N)nccn32)C1 [Linsitinib] (partner 1 µM)
Summary of the method: (§1)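 Lung cancer cell lines, seeded in 1536-well plates, were treated the following day by pin tool with a single drug or with five library-drug doses (not always all listed) in √10 steps on top of a fixed anchor-drug dose. Cells were fixed and nuclei stained in one step after 5 days, and nuclei were counted. Relative viability is the nuclei count for treated wells divided by that for vehicle wells, reported as medians of duplicate plates.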

[2] = compound: C[As](C)SC[C@H](NC(=O)CC[C@H](N)C(=O)O)C(=O)NCC(=O)O [Darinaparsin] + Nc1ncn([C@H]2C[C@H](O)[C@@H](CO)O2)c(=O)n1 [Decitabine] (partner 2 µM)
Summary of the method: as §1

AZ628 + OSI-027 = compound: CC1=C(C=C(C=C1)NC(=O)C2=CC(=CC=C2)C(C)(C)C#N)NC3=CC4=C(C=C3)N=CN(C4=O)C [AZ628] + COc1cccc2cc(-c3nc([C@H]4CC[C@H](C(=O)O)CC4)n4ncnc(N)c34)[nH]c12 [OSI-027] (partner 0.5 µM)
Summary of the method: as §1

QS11 + Tozasertib = compound: C1CC2=C(C1)C=C(C=C2)OC3=NC(=C4C(=N3)N(C=N4)CC5=CC=C(C=C5)C6=CC=CC=C6)N[C@@H](CC7=CC=CC=C7)CO [QS11] + Cc1cc(Nc2cc(N3CCN(C)CC3)nc(Sc3ccc(NC(=O)C4CC4)cc3)n2)n[nH]1 [Tozasertib] (partner 0.1 µM)
Summary of the method: as §1

Cell Line	relative viability ([1]; first compound 0.08 µM)	relative viability ([1]; first compound 0.8 µM)	relative viability ([1]; first compound 2.53 µM)	relative viability ([1]; first compound 8 µM)	relative viability ([2]; first compound 0.08 µM)	relative viability ([2]; first compound 0.8 µM)	relative viability ([2]; first compound 2.53 µM)	relative viability ([2]; first compound 8 µM)	relative viability (AZ628 + OSI-027; first compound 0.08 µM)	relative viability (AZ628 + OSI-027; first compound 0.253 µM)	relative viability (AZ628 + OSI-027; first compound 0.8 µM)	relative viability (AZ628 + OSI-027; first compound 2.53 µM)	relative viability (AZ628 + OSI-027; first compound 8 µM)	relative viability (QS11 + Tozasertib; first compound 0.08 µM)	relative viability (QS11 + Tozasertib; first compound 0.253 µM)	relative viability (QS11 + Tozasertib; first compound 0.8 µM)	relative viability (QS11 + Tozasertib; first compound 2.53 µM)	relative viability (QS11 + Tozasertib; first compound 8 µM)
SW 1573	0.935	0.811	0.874	0.906	0.564	0.468	0.61	0.555	0.669	0.555	0.359	0.362	0.26	0.235	0.138	0.186	0.212	0.197
UMC-11	1.04	1.07	0.862	1.32	0.563	0.574	0.636	0.677	0.468	0.496	0.46	0.464	0.382	0.174	0.27	0.182	0.181	0.184
